According to patent US20240358717A1, “APPLICATION OF B-ECDYSTERONE IN PREPARATION OF MEDICINE FOR URIC ACID-LOWERING AND HYPERURICEMIC KIDNEY INJURY” (Institute of Chinese Materia Medica, China Academy of …, priority 2023, published 2024):

Key:
Format in all cases: in vivo, SD rats
[1] = test system: rats with hyperuricemia; experiment: Effect on blood uric acid level in rats with hyperuricemia (adenine combined with ethambutol model); details: for Blood uric acid: serum, 16 h fasting after last administration, mean±SD; for Uric acid reduction Percentage: versus model group
Method: There were 80 Male SPF grade SD rats, weighing 200-220 g, were purchased from Beijing Vital River Laboratory Animal Technology Co., Ltd., license No. SCXK (Beijing) 2016-0006. The animals were housed in a barrier environment animal laboratory, with automatic temperature control (temperature 20-26° C.), relative humidity 40-70%, and full fresh air. Artificial light was adopted with a 12-hour light-dark cycle. Group experiments were started after 1 day of acclimatization. Animals were fed with standard rat pellet feed, provided by Beijing Keao Xieli Feed Co. Ltd., with purified water.
The rats were randomly divided into 10 groups of 8 rats each:
(1) negative control group (control group); (2) model group; (3) β-ecdysterone underdose group-1, 6 mg/kg; (4) β-ecdysterone underdose group-2, 12 mg/kg; (5) β-ecdysterone low dose group 25 mg/kg; (6) β-ecdysterone medium dose group 50 mg/kg; (7) β-ecdysterone high dose group 100 mg/kg; (8) β-ecdysterone overdose group 200 mg/kg; (9) allopurinol group 25 mg/kg; (10) benzbromarone group 25 mg/kg.
1.2 Establishment of Adenine Combined with Ethambutol-Induced Hyperuricemia Combined with Kidney Injury Model in Rats
Adenine was purchased from Sigma-Aldrich (USA), and 0.5% CMC-Na (sodium carboxymethyl cellulose) solution was used to formulate a suspension at a concentration of 20 mg/mL, ready-to-use, with an administration volume of 5 mL/kg and a dosage of 100 mg/kg. Ethambutol hydrochloride tablets were purchased from Chengdu Jinhua Pharmaceutical Co., Ltd, and 0.5% CMC-Na solution was used to formulate a suspension at a concentration of 50 mg/ml, ready-to-use, with an administration volume of 5 mL/kg and a dosage of 250 mg/kg. The modeling drug adenine 100 mg/kg and ethambutol 250 mg/kg were administered by gavage in the model group and the CQ group at each dose, from day 1, and both were administered once a day for a total of 7 days, to prepare a hyperuricemia rat model. An equal amount of 0.5% CMC-Na solution was administered by gavage in the control group at the relative time.
Observation and detection indicators: fasting for 16 hours after the last administration, blood was collected from the abdominal aorta of rats in each group, centrifuged at 3500 rpm for 15 minutes after standing, separated and collected serum, and the content of uric acid in the serum was measured using an Automatic Chemical Analysis.
Statistical methods: data were expressed as mean±standard deviation and analyzed by one-way ANOVA. Each administration group was compared with the model group separately.

[2] = test system: rats with hyperuricemia; experiment: Kidney function biochemical indicators (serum BUN and SCr) in rats with hyperuricemia; details: for BUN / SCr: serum, mean±SD
Excerpt: The establishment of the model as well as the experimental grouping and administration were the same as in Example 1.
1.1 Kidney function biochemical indicators detection: the method of blood sampling and serum collection was the same as in Example 1, and an Automatic Chemical Analysis was used to detect the content of serum creatinine (SCr) by using the creatine oxidase method, and to detect the content of blood urea nitrogen (BUN) by using the urease method and the kinetic method. the effect of β-ecdysterone on the level of blood BUN and SCr of rats with hyperuricemia is shown in Table 2.

[3] = test system: rats with hyperuricemia; experiment: Urate deposition in rat kidney tissues (hexamine silver staining)
Method: (§1) The establishment of the model as well as the experimental grouping and administration were the same as in Example 1. 1.2 Pathological examination of kidney tissue: anesthetize rats, dissect, and remove kidney tissue. The kidney tissues were fixed with 10% neutral formalin. After sufficient fixation, sampling, gradient dehydration, xylene transparency, paraffin embedding, and preparation of 3 μm paraffin sections were performed according to routine procedures. The kidney tissue lesions as well as urate deposition in the kidney tissues were examined by light microscopy using, HE (hematoxylin & eosin) staining and hexamine silver staining, respectively. […] Among them, A in FIG. 1 and FIG. 2 is the control group, B is the model group, C and D are both β-ecdysterone underdose group, E is β-ecdysterone low dose group, F is β-ecdysterone medium dose group, G is β-ecdysterone high dose group, H is β-ecdysterone overdose group, I is allopurinol group, and J is benzbromarone group. The length unit in the lower right corner of the figure is 50 μm.

[4] = test system: rats with hyperuricemia; experiment: Pathological examination of rat kidney tissue (HE staining); details: for pathology of kidney tissues: HE staining; for protective effect on kidney injury combined with hyperuricemia: overall conclusion from hexamine silver staining, biochemical and pathological results
Method: as §1

SMILES: CCc1oc2ccccc2c1C(=O)c1cc(Br)c(O)c(Br)c1 [Benzbromarone, benzbromarone, reference compound]
- Blood uric acid ([1]; 25 mg/kg): 112.53 ± 30.78 µmol/L
- Uric acid reduction Percentage ([1]; 25 mg/kg): 44.37%
- BUN ([2]; 25 mg/kg): 10.91 ± 2.66 mmol/L
- SCr ([2]; 25 mg/kg): 50.64 ± 7.92 µmol/L
- serum BUN level compared with the model group ([2]; positive drugs, 25 mg/kg): did not show significant differences
- serum SCr level compared with the model group ([2]; positive drugs, 25 mg/kg): did not show significant differences
- urate crystals deposition in kidney tissue ([3]; positive drugs, 25 mg/kg): significantly reduced
- pathology of kidney tissues ([4]; 25 mg/kg): severe renal tubules dilatation, tubular wall thinning, eosinophilic degeneration, and inflammatory cell infiltration were observed
- protective effect on kidney injury combined with hyperuricemia [4]: did not have a significant protective effect

SMILES: Oc1ncnc2[nH]ncc12 [Allopurinol, allopurinol, reference compound]
- Blood uric acid ([1]; 25 mg/kg): 109.11 ± 21.66 µmol/L
- Uric acid reduction Percentage ([1]; 25 mg/kg): 48.90%
- BUN ([2]; 25 mg/kg): 12.17 ± 3.03 mmol/L
- SCr ([2]; 25 mg/kg): 48.16 ± 6.95 µmol/L
- serum BUN level compared with the model group ([2]; positive drugs, 25 mg/kg): did not show significant differences
- serum SCr level compared with the model group ([2]; positive drugs, 25 mg/kg): did not show significant differences
- urate crystals deposition in kidney tissue ([3]; positive drugs, 25 mg/kg): significantly reduced
- pathology of kidney tissues ([4]; 25 mg/kg): severe renal tubules dilatation, tubular wall thinning, eosinophilic degeneration, and inflammatory cell infiltration were observed
- protective effect on kidney injury combined with hyperuricemia [4]: did not have a significant protective effect

SMILES: CC(C)(O)CC[C@@H](O)[C@](C)(O)[C@H]1CC[C@@]2(O)C3=CC(=O)[C@@H]4C[C@@H](O)[C@@H](O)C[C@]4(C)[C@H]3CC[C@]12C [β-ecdysterone]
- Blood uric acid ([1]; 6 mg/kg): 154.76 ± 38.71 µmol/L
- Uric acid reduction Percentage ([1]; 6 mg/kg): 4.98%
- Blood uric acid ([1]; 12 mg/kg): 147.55 ± 39.28 µmol/L
- Uric acid reduction Percentage ([1]; 12 mg/kg): 10.10%
- Blood uric acid ([1]; 25 mg/kg): 117.91 ± 43.74 µmol/L
- Uric acid reduction Percentage ([1]; 25 mg/kg): 37.78%
- Blood uric acid ([1]; 50 mg/kg): 110.83 ± 25.02 µmol/L
- Uric acid reduction Percentage ([1]; 50 mg/kg): 46.58%
- Blood uric acid ([1]; 100 mg/kg): 120.19 ± 68.99 µmol/L
- Uric acid reduction Percentage ([1]; 100 mg/kg): 35.17%
- Blood uric acid ([1]; 200 mg/kg): 127.56 ± 61.77 µmol/L
- Uric acid reduction Percentage ([1]; 200 mg/kg): 27.36%
- blood uric acid level compared to the model group ([1]; dose too low (underdose groups)): not significantly reduced
- BUN ([2]; 6 mg/kg): 11.34 ± 4.11 mmol/L
- SCr ([2]; 6 mg/kg): 51.72 ± 7.35 µmol/L
- BUN ([2]; 12 mg/kg): 9.81 ± 3.76 mmol/L
- SCr ([2]; 12 mg/kg): 47.56 ± 6.11 µmol/L
- BUN ([2]; 25 mg/kg): 7.36 ± 1.71 mmol/L
- SCr ([2]; 25 mg/kg): 40.73 ± 5.79 µmol/L
- BUN ([2]; 50 mg/kg): 7.19 ± 1.00 mmol/L
- SCr ([2]; 50 mg/kg): 41.30 ± 4.08 µmol/L
- BUN ([2]; 100 mg/kg): 7.84 ± 2.04 mmol/L
- SCr ([2]; 100 mg/kg): 42.15 ± 5.01 µmol/L
- BUN ([2]; 200 mg/kg): 8.04 ± 3.96 mmol/L
- SCr ([2]; 200 mg/kg): 44.30 ± 5.21 µmol/L
- serum BUN level compared with the model group ([2]; after administration (p<0.01)): significantly reduced
- serum SCr level compared with the model group ([2]; after administration (p<0.01)): significantly reduced
- serum BUN level compared with the model group ([2]; dose too high): only a slight decreasing trend
- serum SCr level compared with the model group ([2]; dose too high): only a slight decreasing trend
- serum BUN level compared with the model group ([2]; dose too low): no significant difference
- serum SCr level compared with the model group ([2]; dose too low): no significant difference
- urate crystals deposition in kidney tissue ([3]; 50 mg/kg group): most obvious effect
- urate crystals deposition in kidney tissue ([3]; after administration, versus model group): significantly reduced
- urate crystals deposition in kidney tissue ([3]; lower dose): no significant reduction
- pathology of kidney tissues ([4]; 25 mg/kg): tubular dilatation was reduced compared with that of the model group
- pathology of kidney tissues ([4]; high dose group 100 mg/kg): tubular dilatation was reduced compared with that of the model group
- pathology of kidney tissues ([4]; medium dose group 50 mg/kg): tubular dilatation was significantly reduced
- protective effect on kidney injury combined with hyperuricemia [4]: significant protective effect
- pathology of kidney tissues ([4]; overdose group 200 mg/kg): mild tubular dilatation and tubular epithelial cell detachment, and tubular wall thinning in some of the tubules were observed locally
- pathology of kidney tissues ([4]; underdose group (6 and 12 mg/kg)): severe tubular expansion, epithelial cell detachment, eosinophilic degeneration and inflammatory cell infiltration could still be observed
